Data: patent US10753924B2, “Method for selecting patients responsive for cancer treatments” (Mitogro OÜ, priority 2016, dated 2020)
Marks after values point to notes of the source that are not given here.

Assays:
[1] = tested on: permeabilized MCF-7 cells; assay: Citrate efflux from permeabilized MCF-7 cells (induction phase in Oroboros oxygraph, enzymatic citrate measurement); assay type: cell-based, human; conditions: 4.56 × 10^6 cells/ml
Protocol: Stock culture of MCF-7 cells was obtained from American Type Culture Collection (ATCC® Number: HTB-22™). The cells were grown as adherent monolayers in big T75 flasks (Greiner Bio-One GmbH, Germany) in low glucose (1.0 g/L) DMEM with stable L-glutamine (PAA Laboratories GmbH, Austria) that was supplemented with 1 mM Na-pyruvate (Gibco®, REF 11360-039), 10% heat-inactivated fetal bovine serum (FBS), […] human recombinant insulin (Gibco) and antibiotics: penicillin (100 U/ml), streptomycin (100 μg/ml) and gentamicin at a final concentration of 50 μg/ml. MCF-7 cells were grown and maintained at 37° C. in a humidified incubator containing 5% CO2 in air. The cells were sub-cultured at 2-3 day intervals.
MCF-7 cells were harvested from 5 T75 flasks (72 h after their seeding at a subculturing ratio of 1/5) by means of accutase (a cell detachment agent) treatment.
After detachment, the cell were washed twice with Mitomed-B solution (see Table 2), supplemented with lmg/ml bovine serum albumin (BSA) and 3-5 μM leupeptin (protease inhibitor) with centrifugation (on a Heraus “Biofuge primo R” refrigerated centrifuge equipped with a swing-out rotor, 150×g for 7 min at 4° C.). After washing, the pellet was resuspended in 2.5 ml of Mitomed-B (supplemented with lmg/ml BSA and 3-5 μM leupeptin) and the cells were stored on melting ice.
The experiments were carried out in an Oroboros oxygraph. Two parallel chambers on the same device were used. Reaction medium was Lahus-B as described below (Table 3).
Saponine concetration suitable for viability of MCF-7 cells was defined as 30 μg/ml. Malate, 2 mM, was present in all protocols in the reaction medium. BMS303141 was used to inhibit activity of ATP-citratelyase to stop it from metabolizing free citrate that accumulates to the reaction medium. 1,2,3-benzenetricarboxylic acid was used to stop citrate efflux from mitochondria. Saponine incubation time was 5 minutes. Cytochrome c and CAT were injected to the reaction medium right at the end of the experiment to assess the quality of mitochondrial inner and outer membranes. […]

[2] = tested on: permeabilized human breast cancer fibers; assay: Citrate efflux from permeabilized fibers derived from human breast cancer clinical sample; assay type: cell-based
Protocol: In order to reach experiment targets, the sarcolemma and plasma membranes in skinned tumor fibers were completely permeabilized by saponin treatment keeping the mitochondrial membranes intact (both tumor and healthy tissue samples from the same patient were processed equally). Namely, skinned fibers were transferred into plastic vials with pre-cooled (on ice) Lahus-A (Table 8) containing 50 μg/ml saponin and incubated with mild stirring (at 40 rpm) for 30 min at 4° C. Permeabilized fibers were then washed in pre-cooled solution Lahus-B (Table 3) for 5 min under mild stirring; this washing procedure was performed three times to completely remove saponin and all soluble metabolites. The washed samples were placed into Lahus-B (Table 3) and kept in the same medium (at 4° C.) until use.
The experiments were carried out in an Oroboros oxygraph. Two parallel chambers on the same device were used. Reaction medium was Lahus-B (Table 3).
Saponine concetration suitable for viability of skinned breast cancer fibers was defined as 50 μg/ml. Malate, 2 mM, was present in all protocols in the reaction medium. BMS303141 was used to inhibit activity of ATP-citrate lyase to stop it from metabolizing free citrate that accumulates to the reaction medium. 1,2,3-benzenetricarboxylic acid was used to stop citrate efflux from mitochondria. Cytochorome c and CAT were injected to the reaction medium right at the end of the experiment to assess the quality of mitochondrial inner and outer membranes.
Duration of the induction phase: 1 hour.
Once the induction medium was ended, the reaction medium was transferred to 2.5 ml Eppendorf tube for centrifugation (14 000 rpm, 7 minutes). Fiber was removed from the reaction medium and weighted for calculations. The supernatant from the centrifugation was collected through syringe filter and stored on ice. Remaining debris was discarded as biological waste.
900 μl of each supernatant was used to enzymatically measure concentration of citrate as described before (Petrarulo et al, 1995).

O=C(O)c1cccc(C(=O)O)c1C(=O)O [1,2,3-BTC, 1,2,3-benzenetricarboxylic acid]
citrate efflux ([1]; protocol 2: glutamate 5 mM + malate 2 mM, 1,2,3-BTC 1 mM, 1 hour induction (without inhibitor: 1428)): 1098 ng citrate per 10^6 cells per | citrate efflux ([1]; protocol 4: pyruvate 0.05 mM + malate 2 mM, 1,2,3-BTC 1 mM, 1 hour induction (without inhibitor: 5564)): 1524 ng citrate per 10^6 cells per | citrate efflux ([1]; protocol 6: PalCar 40 μM + malate 2 mM, 1,2,3-BTC 1 mM, 1 hour induction (without inhibitor: 3059)): 1156 ng citrate per 10^6 cells per | effect on citrate accumulation in the reaction medium ([2]; permeabilized human breast cancer fibers, 1,2,3-BTC 1 mM): blocked the citrate accumulation in the reaction medium | citrate efflux ([2]; protocol 2: Glut/Mal, 1,2,3-BTC 1 mM, cancer fibers, footnote: result below detection limit (without inhibitor: 144.1, 172.1)): 41.7** ng citrate/mg × 60 min | citrate efflux ([2]; protocol 4: Pyr/Mal, 1,2,3-BTC 1 mM, cancer fibers, footnote: result below detection limit (without inhibitor: 194.6)): 17.6** ng citrate/mg × 60 min | citrate efflux ([2]; protocol 6: Palcar/Mal, 1,2,3-BTC 1 mM, cancer fibers (without inhibitor: 158.7)): 73.7 ng citrate/mg × 60 min
